Data taken from patent US20250282802A1, “P[…] AND METHODS” (priority 2020, published 2025).
Read-outs that look alike come from different tables or passages of the source.

Tested on: Escherichia coli WM6242
Test: Disk diffusion assay with phosphonate-specific bioassay strain E. coli WM6242
Assay type: cell-based
Procedure: Antibacterial bioassays. Susceptibility testing for the ESKAPE pathogens and Salmonella enterica LT2 was performed using a Kirby-Bauer method as outlined by the Clinical and Laboratory Standards Institute (CLSI). For rich media bioassays, Mueller Hinton Broth 2 (MH-2, Sigma-Aldrich, 90922) was used for all strains except 1% BHI was supplemented for Enterococcus faecalis ATCC 19433. For minimal media bioassays, glucose-MOPS minimal medium was used. Briefly, overnight bacterial cultures were sub-cultured and inoculated into 5 mL top agar (0.7% agar) for final concentration of 5×10^5 CFU/mL. Then, 20 μL of a compound 2-fold dilution series (200, 100, 50, 25, 12.5, 6.25 μM in water) was spotted on 6 mm diameter blank paper discs (BD BBL™ 231039). Control discs received 20 μL of 50 mg/mL kanamycin. Plates were incubated at 35° C. for 20-24 hours. […] Sensitivity of the IPTG-inducible phosphonate uptake strain WM6242 to pantaphos was tested using a disk diffusion assay. Plates containing growth medium were overlayed with 5 mL of top agar (0.7% agar) inoculated with 100 μL (OD600=0.8) of the phosphonate-specific E. coli indicator strain (WM6242) with or without addition of 1 mM IPTG. WM6242 is engineered with an IPTG-inducible, non-specific phosphonate uptake system (phnCDE). After the seeded overlay solidified, 6 mm paper disks were spotted with 10 μL of a dilution series (200, 100, 50, 25, 12.5, 6.25 μM in water) of pantaphos and applied to the plates that were then incubated at 37° C. for 24 hours. Phosphonate-specific activity was queried by comparing sensitivity to that of 200 μM kanamycin and 200 μM fosfomycin.

O=C(O)/C=C(\C(=O)O)C(O)P(=O)(O)O (centres unmarked) [pantaphos, 2-(hydroxy(phosphono)methyl)maleate]
MIC (+IPTG, Mueller-Hinton 2 medium, read-out: MIC, Rich medium): >200 µM | MIC (+IPTG, glucose-MOPS minimal medium, read-out: MIC, Minimal medium): >200 µM | MIC (Escherichia coli, WM6242, −IPTG, Mueller-Hinton 2 medium, read-out: MIC, Rich medium): > 200 µM | MIC (Escherichia coli, WM6242, −IPTG, glucose-MOPS minimal medium, read-out: MIC, Minimal medium): > 200 µM | sensitivity of the strain to pantaphos, in words (with or without IPTG induction): insensitive
